Tests used:
Test in all cases: relative viability (nuclei count vs DMSO), 5 days (fraction); higher = more cells survive
Veliparib + Vorinostat = compound: C[C@]1(c2nc3c(C(N)=O)cccc3[nH]2)CCCN1 [Veliparib] + O=C(CCCCCCC(=O)Nc1ccccc1)NO [Vorinostat] (partner 1 µM)
How it was run: (§1)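 Lung cancer cell lines, seeded in 1536-well plates, were treated the following day by pin tool with a single drug or with five library-drug doses (not always all listed) in √10 steps on top of a fixed anchor-drug dose. Cells were fixed and nuclei stained in one step after 5 days, and nuclei were counted. Relative viability is the nuclei count for treated wells divided by that for vehicle wells, reported as medians of duplicate plates.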

Veliparib + Phenformin = compound: C[C@]1(c2nc3c(C(N)=O)cccc3[nH]2)CCCN1 [Veliparib] + N=C(N)NC(=N)NCCc1ccccc1 [Phenformin] (partner 250 µM)
How it was run: as §1

[1] = compound: COC1=CC=C(C=C1)CN2C=CC3=C2C=C(C=C3)C(=O)NO + CC(=O)c1c(C)c2cnc(Nc3ccc(N4CCNCC4)cn3)nc2n(C2CCCC2)c1=O [Palbociclib] (partner 0.5 µM)
How it was run: as §1

Veliparib + Decitabine = compound: C[C@]1(c2nc3c(C(N)=O)cccc3[nH]2)CCCN1 [Veliparib] + Nc1ncn([C@H]2C[C@H](O)[C@@H](CO)O2)c(=O)n1 [Decitabine] (partner 2 µM)
How it was run: as §1

Cell Line: SW 1573
- relative viability (Veliparib + Vorinostat; first compound 0.06325 µM): 0.596
- relative viability (Veliparib + Vorinostat; first compound 0.2 µM): 0.67
- relative viability (Veliparib + Vorinostat; first compound 0.6325 µM): 0.495
- relative viability (Veliparib + Vorinostat; first compound 2 µM): 0.869
- relative viability (Veliparib + Phenformin; first compound 0.06325 µM): 0.32
- relative viability (Veliparib + Phenformin; first compound 0.2 µM): 0.419
- relative viability (Veliparib + Phenformin; first compound 0.6325 µM): 0.324
- relative viability (Veliparib + Phenformin; first compound 2 µM): 0.4
- relative viability ([1]; first compound 0.253 µM): 0.397
- relative viability ([1]; first compound 0.8 µM): 0.474
- relative viability ([1]; first compound 2.53 µM): 0.392
- relative viability ([1]; first compound 8 µM): 0.326
- relative viability (Veliparib + Decitabine; first compound 0.02 µM): 0.29
- relative viability (Veliparib + Decitabine; first compound 0.06325 µM): 0.289
- relative viability (Veliparib + Decitabine; first compound 0.2 µM): 0.287
- relative viability (Veliparib + Decitabine; first compound 0.6325 µM): 0.361
- relative viability (Veliparib + Decitabine; first compound 2 µM): 0.298

From the supplement of paper PMC10307832
